Source: paper PMC6540285, “Evaluation of Protein Kinase Inhibitors with PLK4 Cross-Over Potential in a Pre-Clinical Model of Cancer” (International Journal of Molecular Sciences, 2019)

Experiments:
GRK7 = GRK7 (Homo sapiens, UniProt Q8WTQ7); experiment: SelectScreen kinase profiling, ZLYTE; type: biochemical; details: GRK7, 10 µM
ABL1 F317L = ABL1 F317L (Homo sapiens, UniProt P00519, F317L); experiment: SelectScreen kinase profiling, ZLYTE; type: biochemical
GRK6 = GRK6 (Homo sapiens, UniProt P43250); experiment: SelectScreen kinase profiling, ZLYTE; type: biochemical; details: GRK6, 10 µM
PRKCH (PKC eta) = PRKCH (PKC eta) (Homo sapiens, UniProt P24723); experiment: SelectScreen kinase profiling, ZLYTE; type: biochemical
MYO3A (MYO3 alpha) = MYO3A (MYO3 alpha) (Homo sapiens, UniProt Q8NEV4); experiment: SelectScreen kinase profiling, LanthaScreen binding
GSG2 (Haspin) = GSG2 (Haspin) (Homo sapiens, UniProt Q8TF76); experiment: SelectScreen kinase profiling, Adapta; type: biochemical
RT and MB cells [1] = experiment: Clonogenic colony formation assay; type: cell-based; details: 1µM
Method: All cell lines were seeded at 200 cells per well in six-well plates and incubated overnight. After 24 h, the treatment medium was added and changed once a week. Cells were treated with 0.01, 0.05, 0.1, 0.2, 0.5, 1, 5, and 10 µM of PLK4i and 0.1% DMSO as control. After 14 days, the cells were washed twice with 1x PBS, fixed with formalin, and stained with Cresyl violet (ACROS Organics, Pittsburgh, PA, USA). Colonies were counted using the ImageJ software (www.imagej.nih.gov, accessed on April 21, 2017).

NEK2 = NEK2 (Homo sapiens, UniProt P51955); experiment: SelectScreen kinase profiling, ZLYTE; type: biochemical; details: NEK2, 10 µM
LRRK2 G2019S = LRRK2 G2019S (Homo sapiens, UniProt Q5S007, G2019S); experiment: SelectScreen kinase profiling, Adapta; type: biochemical
FLT4 (VEGFR3) = FLT4 (VEGFR3) (Homo sapiens, UniProt P35916); experiment: SelectScreen kinase profiling, ZLYTE; type: biochemical
MET (cMet) Y1235D = MET (cMet) Y1235D (Homo sapiens, UniProt P08581, Y1235D); experiment: SelectScreen kinase profiling, ZLYTE; type: biochemical
FRK (PTK5) = FRK (PTK5) (Homo sapiens, UniProt P42685); experiment: SelectScreen kinase profiling, ZLYTE; type: biochemical
MAPKAPK2 = MAPKAPK2 (Homo sapiens, UniProt P49137); experiment: SelectScreen kinase profiling, ZLYTE; type: biochemical; details: MAPKAPK2, 10 µM
AMPK (A1/B2/G3) = AMPK (A1/B2/G3) (Homo sapiens, UniProt Q13131); experiment: SelectScreen kinase profiling, ZLYTE; type: biochemical
STK32B (YANK2) = STK32B (YANK2) (Homo sapiens, UniProt Q9NY57); experiment: SelectScreen kinase profiling, LanthaScreen binding
CDK5/p35 = CDK5/p35 (Homo sapiens, UniProt Q00535); experiment: SelectScreen kinase profiling, ZLYTE; type: biochemical; details: CDK5/p35, 10 µM
CSNK2A1 (CK2 alpha 1) = CSNK2A1 (CK2 alpha 1) (Homo sapiens, UniProt P68400); experiment: SelectScreen kinase profiling, ZLYTE; type: biochemical
RPS6KA4 (MSK2) = RPS6KA4 (MSK2) (Homo sapiens, UniProt O75676); experiment: SelectScreen kinase profiling, ZLYTE; type: biochemical
MAPK11 (p38 beta) = MAPK11 (p38 beta) (Homo sapiens, UniProt Q15759); experiment: SelectScreen kinase profiling, ZLYTE; type: biochemical
ITK = ITK (Homo sapiens, UniProt Q08881); experiment: SelectScreen kinase profiling, ZLYTE; type: biochemical
ERN1 = ERN1 (Homo sapiens, UniProt O75460); experiment: SelectScreen kinase profiling, LanthaScreen binding; details: ERN1, 10 µM
PHKG2 = PHKG2 (Homo sapiens, UniProt P15735); experiment: SelectScreen kinase profiling, ZLYTE; type: biochemical; details: PHKG2, 10 µM
MST4 = MST4 (Homo sapiens, UniProt Q9P289); experiment: SelectScreen kinase profiling, ZLYTE; type: biochemical; details: MST4, 10 µM
AMPK (A2/B2/G3) = AMPK (A2/B2/G3) (Homo sapiens, UniProt P54646); experiment: SelectScreen kinase profiling, ZLYTE; type: biochemical
ABL1 T315I = ABL1 T315I (Homo sapiens, UniProt P00519, T315I); experiment: SelectScreen kinase profiling, ZLYTE; type: biochemical
ERBB2 (HER2) = ERBB2 (HER2) (Homo sapiens, UniProt P04626); experiment: SelectScreen kinase profiling, ZLYTE; type: biochemical
PRKCB1 (PKC beta I) = PRKCB1 (PKC beta I) (Homo sapiens, UniProt P05771); experiment: SelectScreen kinase profiling, ZLYTE; type: biochemical
IRAK1 = IRAK1 (Homo sapiens, UniProt P51617); experiment: SelectScreen kinase profiling, Adapta; type: biochemical; details: IRAK1, 10 µM
RT and MB cells [2] = experiment: Beta-galactosidase senescence assay; type: cell-based; details: all cell lines
Method: Senescence was evaluated using the Beta-galactosidase assay (Senescence Cells Histochemical Staining Kit CS0030 (Sigma, St Louis, MO, USA) and clonogenic recovery assay as previously described.

LRRK2 R1441C = LRRK2 R1441C (Homo sapiens, UniProt Q5S007, R1441C); experiment: SelectScreen kinase profiling, Adapta; type: biochemical
FGFR3 K650M = FGFR3 K650M (Homo sapiens, UniProt P22607, K650M); experiment: SelectScreen kinase profiling, LanthaScreen binding
AMPK (A1/B2/G1) = AMPK (A1/B2/G1) (Homo sapiens, UniProt Q13131); experiment: as above
AMPK (A1/B1/G2) = AMPK (A1/B1/G2) (Homo sapiens, UniProt Q13131); experiment: as above
CAMK2D (CaMKII delta) = CAMK2D (CaMKII delta) (Homo sapiens, UniProt Q13557); experiment: SelectScreen kinase profiling, ZLYTE; type: biochemical
MET (cMet) = MET (cMet) (Homo sapiens, UniProt P08581); experiment: SelectScreen kinase profiling, ZLYTE; type: biochemical
FGFR2 N549H = FGFR2 N549H (Homo sapiens, UniProt P21802, N549H); experiment: SelectScreen kinase profiling, ZLYTE; type: biochemical

RPS6KA4 (MSK2), sequence (O75676 whole entry): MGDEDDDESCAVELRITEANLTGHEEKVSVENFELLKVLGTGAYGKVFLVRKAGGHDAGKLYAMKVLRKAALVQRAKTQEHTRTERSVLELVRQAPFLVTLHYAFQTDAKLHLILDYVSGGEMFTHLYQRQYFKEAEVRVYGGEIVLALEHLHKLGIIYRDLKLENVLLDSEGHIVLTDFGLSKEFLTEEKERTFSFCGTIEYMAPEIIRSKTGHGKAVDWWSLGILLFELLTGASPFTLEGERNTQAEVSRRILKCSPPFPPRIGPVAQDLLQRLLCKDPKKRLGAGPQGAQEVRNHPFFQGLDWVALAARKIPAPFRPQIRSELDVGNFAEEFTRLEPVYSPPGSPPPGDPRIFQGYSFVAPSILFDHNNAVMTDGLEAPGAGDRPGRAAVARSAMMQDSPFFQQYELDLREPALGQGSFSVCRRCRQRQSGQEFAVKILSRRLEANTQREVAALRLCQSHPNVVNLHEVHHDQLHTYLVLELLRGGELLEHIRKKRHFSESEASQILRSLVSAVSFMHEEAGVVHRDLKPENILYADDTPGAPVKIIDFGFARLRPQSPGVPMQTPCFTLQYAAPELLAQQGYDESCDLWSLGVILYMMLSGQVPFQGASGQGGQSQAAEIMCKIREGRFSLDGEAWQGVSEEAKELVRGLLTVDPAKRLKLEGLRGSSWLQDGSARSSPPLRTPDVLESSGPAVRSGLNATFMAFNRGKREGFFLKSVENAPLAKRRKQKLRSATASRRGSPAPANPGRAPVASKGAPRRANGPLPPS
PHKG2, sequence (P15735 whole entry): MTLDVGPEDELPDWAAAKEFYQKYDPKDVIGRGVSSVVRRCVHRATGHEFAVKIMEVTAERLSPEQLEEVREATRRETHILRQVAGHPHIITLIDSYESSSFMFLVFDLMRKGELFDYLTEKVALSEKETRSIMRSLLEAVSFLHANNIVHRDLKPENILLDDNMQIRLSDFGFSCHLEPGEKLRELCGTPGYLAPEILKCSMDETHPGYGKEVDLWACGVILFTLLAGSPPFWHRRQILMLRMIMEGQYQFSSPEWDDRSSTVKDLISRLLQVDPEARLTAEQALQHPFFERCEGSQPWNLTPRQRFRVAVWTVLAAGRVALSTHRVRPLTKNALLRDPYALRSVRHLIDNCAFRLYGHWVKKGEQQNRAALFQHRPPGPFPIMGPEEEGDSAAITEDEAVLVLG
MAPKAPK2, sequence (P49137 whole entry): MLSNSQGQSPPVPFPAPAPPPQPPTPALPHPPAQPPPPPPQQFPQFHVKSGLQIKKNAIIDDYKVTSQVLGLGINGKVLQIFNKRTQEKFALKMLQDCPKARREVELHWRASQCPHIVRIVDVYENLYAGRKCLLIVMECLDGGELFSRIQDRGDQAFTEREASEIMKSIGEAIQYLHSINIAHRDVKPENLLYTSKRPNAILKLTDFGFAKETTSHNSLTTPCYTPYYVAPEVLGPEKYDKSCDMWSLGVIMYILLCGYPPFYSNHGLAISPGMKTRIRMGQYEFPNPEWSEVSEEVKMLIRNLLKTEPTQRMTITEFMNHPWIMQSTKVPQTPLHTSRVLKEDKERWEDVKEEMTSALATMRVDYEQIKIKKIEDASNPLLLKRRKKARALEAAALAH
NEK2, sequence (P51955 whole entry): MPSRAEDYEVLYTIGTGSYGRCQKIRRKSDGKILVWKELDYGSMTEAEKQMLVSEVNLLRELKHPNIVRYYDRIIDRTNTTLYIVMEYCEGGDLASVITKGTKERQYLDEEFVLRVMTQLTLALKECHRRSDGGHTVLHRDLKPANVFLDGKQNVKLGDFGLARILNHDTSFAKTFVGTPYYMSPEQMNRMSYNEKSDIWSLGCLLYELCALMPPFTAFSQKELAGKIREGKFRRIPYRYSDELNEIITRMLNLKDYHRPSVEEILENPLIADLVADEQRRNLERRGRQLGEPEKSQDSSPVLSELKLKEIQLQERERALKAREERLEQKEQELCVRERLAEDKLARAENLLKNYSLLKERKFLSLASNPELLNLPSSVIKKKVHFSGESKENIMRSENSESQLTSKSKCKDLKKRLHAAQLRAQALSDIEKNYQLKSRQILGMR
PRKCH (PKC eta), sequence (P24723 whole entry): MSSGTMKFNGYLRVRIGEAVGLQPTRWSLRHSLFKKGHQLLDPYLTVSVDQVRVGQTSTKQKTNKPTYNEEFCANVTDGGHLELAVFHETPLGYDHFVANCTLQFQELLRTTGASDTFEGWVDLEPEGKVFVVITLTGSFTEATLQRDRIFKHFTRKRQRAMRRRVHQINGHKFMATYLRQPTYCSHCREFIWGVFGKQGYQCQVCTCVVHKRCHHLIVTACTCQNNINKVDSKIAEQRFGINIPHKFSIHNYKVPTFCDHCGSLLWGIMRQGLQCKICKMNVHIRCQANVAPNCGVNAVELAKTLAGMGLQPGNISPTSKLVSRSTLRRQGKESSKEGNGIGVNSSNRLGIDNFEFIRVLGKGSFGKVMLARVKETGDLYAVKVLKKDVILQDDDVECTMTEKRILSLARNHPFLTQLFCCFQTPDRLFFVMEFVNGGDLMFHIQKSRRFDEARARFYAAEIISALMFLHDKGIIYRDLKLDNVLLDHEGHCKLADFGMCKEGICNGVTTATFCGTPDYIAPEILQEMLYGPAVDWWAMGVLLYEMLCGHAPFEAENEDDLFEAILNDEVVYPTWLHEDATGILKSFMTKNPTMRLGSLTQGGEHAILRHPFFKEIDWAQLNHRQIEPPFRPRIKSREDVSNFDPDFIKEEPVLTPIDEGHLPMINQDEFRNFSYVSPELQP
FGFR3 K650M, sequence (P22607 23-806 K650M): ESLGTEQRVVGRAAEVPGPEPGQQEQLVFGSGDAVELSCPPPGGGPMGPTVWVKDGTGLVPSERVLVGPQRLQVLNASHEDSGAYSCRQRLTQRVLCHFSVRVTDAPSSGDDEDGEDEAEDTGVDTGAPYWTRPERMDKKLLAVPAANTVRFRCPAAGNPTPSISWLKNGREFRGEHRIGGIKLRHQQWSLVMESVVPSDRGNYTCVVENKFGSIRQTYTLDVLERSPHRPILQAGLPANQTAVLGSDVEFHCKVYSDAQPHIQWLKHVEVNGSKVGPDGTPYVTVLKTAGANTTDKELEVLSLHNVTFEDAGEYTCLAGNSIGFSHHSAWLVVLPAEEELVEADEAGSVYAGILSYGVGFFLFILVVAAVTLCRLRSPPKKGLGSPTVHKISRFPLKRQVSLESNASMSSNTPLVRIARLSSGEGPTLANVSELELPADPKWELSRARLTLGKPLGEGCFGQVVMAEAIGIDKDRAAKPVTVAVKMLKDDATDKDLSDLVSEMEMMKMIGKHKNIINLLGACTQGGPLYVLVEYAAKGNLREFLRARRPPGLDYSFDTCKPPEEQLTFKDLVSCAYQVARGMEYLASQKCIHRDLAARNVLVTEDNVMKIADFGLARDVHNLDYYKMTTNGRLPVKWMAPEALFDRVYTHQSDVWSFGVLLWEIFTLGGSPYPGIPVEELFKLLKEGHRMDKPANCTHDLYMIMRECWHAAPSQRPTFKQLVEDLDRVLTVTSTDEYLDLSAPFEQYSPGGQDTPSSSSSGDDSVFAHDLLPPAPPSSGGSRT
FRK (PTK5), sequence (P42685 whole entry): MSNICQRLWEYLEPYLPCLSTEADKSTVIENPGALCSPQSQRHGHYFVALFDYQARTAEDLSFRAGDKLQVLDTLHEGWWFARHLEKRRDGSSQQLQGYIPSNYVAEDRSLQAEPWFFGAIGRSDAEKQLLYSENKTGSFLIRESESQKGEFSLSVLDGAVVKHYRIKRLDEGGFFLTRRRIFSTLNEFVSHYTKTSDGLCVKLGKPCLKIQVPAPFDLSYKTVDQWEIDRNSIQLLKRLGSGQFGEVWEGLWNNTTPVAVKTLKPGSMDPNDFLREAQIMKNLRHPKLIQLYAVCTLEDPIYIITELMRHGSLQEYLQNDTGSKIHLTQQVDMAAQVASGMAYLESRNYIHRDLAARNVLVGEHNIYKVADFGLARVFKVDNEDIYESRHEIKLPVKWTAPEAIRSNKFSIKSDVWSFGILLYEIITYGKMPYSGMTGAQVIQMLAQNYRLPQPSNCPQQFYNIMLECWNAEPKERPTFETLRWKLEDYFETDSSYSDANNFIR
ERN1, sequence (O75460 19-977): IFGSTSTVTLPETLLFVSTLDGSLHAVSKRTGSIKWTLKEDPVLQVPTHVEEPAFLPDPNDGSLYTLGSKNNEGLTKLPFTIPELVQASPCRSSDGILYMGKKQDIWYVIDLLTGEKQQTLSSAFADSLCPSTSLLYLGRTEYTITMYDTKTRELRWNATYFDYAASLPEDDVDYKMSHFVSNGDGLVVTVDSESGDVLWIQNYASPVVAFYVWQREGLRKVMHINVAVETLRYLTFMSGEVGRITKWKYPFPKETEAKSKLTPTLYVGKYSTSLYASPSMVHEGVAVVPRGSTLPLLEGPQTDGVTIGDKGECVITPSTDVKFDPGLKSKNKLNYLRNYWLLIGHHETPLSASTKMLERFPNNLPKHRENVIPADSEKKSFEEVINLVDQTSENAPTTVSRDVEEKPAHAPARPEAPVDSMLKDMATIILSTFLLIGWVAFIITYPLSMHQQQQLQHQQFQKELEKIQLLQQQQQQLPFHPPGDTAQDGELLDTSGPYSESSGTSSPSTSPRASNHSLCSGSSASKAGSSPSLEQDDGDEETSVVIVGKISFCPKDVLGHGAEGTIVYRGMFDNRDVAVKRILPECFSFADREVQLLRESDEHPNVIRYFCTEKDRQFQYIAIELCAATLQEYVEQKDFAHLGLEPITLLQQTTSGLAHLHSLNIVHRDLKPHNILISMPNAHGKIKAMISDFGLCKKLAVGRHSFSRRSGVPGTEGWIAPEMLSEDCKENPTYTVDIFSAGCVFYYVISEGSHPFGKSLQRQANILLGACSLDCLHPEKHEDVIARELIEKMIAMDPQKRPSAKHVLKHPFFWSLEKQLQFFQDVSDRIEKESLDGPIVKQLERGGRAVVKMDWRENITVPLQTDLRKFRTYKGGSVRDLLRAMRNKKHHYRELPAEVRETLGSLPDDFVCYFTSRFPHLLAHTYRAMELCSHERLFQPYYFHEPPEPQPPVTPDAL

O=C(c1ccc(/C=C/c2n[nH]c3ccccc23)cc1)N1CCNCC1 [KW-2449]
inhibition at 10 µM (GRK7): 41% | inhibition at 10 µM (ABL1 F317L): 98% | inhibition at 10 µM (GRK6): 62% | inhibition at 10 µM (PRKCH (PKC eta)): -2% | inhibition at 10 µM (MYO3A (MYO3 alpha)): 59% | inhibition at 10 µM (GSG2 (Haspin)): 74% | colony formation (RT and MB cells [1]): complete inhibition of colony formation in all cell lines except the MB cell line DAOY | inhibition at 10 µM (NEK2): 47% | inhibition at 10 µM (LRRK2 G2019S): 100% | inhibition at 10 µM (FLT4 (VEGFR3)): 95% | inhibition at 10 µM (MET (cMet) Y1235D): 88% | inhibition at 10 µM (FRK (PTK5)): 90% | inhibition at 10 µM (MAPKAPK2): 28% | inhibition at 10 µM (AMPK (A1/B2/G3)): 99% | inhibition at 10 µM (STK32B (YANK2)): 61% | inhibition at 10 µM (CDK5/p35): 94% | inhibition at 10 µM (CSNK2A1 (CK2 alpha 1)): 18% | inhibition at 10 µM (RPS6KA4 (MSK2)): 75% | inhibition at 10 µM (MAPK11 (p38 beta)): 90% | inhibition at 10 µM (ITK): 99% | inhibition at 10 µM (ERN1): 32% | inhibition at 10 µM (PHKG2): 99% | inhibition at 10 µM (MST4): 92% | inhibition at 10 µM (AMPK (A2/B2/G3)): 98% | inhibition at 10 µM (ABL1 T315I): 101% | inhibition at 10 µM (ERBB2 (HER2)): 4% | inhibition at 10 µM (PRKCB1 (PKC beta I)): 19% | inhibition at 10 µM (IRAK1): 99% | cell senescence (beta-galactosidase) (RT and MB cells [2]): dose-dependent induction of cell senescence | inhibition at 10 µM (LRRK2 R1441C): 100% | inhibition at 10 µM (FGFR3 K650M): 22% | inhibition at 10 µM (AMPK (A1/B2/G1)): 77% | inhibition at 10 µM (AMPK (A1/B1/G2)): 85% | inhibition at 10 µM (CAMK2D (CaMKII delta)): 96% | inhibition at 10 µM (MET (cMet)): 95% | inhibition at 10 µM (FGFR2 N549H): 94%
